B1: CYP2C19 0.1 mg/ml: CYP2C19 microsomes at 0.1 mg/ml, tested alone (protein, UniProt P33261 1-490, looked up)
Cytochrome P450 2C19: MDPFVVLVLCLSCLLLLSIWRQSSGRGKLPPGPTPLPVIGNILQIDIKDVSKSLTNLSKIYGPVFTLYFGLERMVVLHGYEVVKEALIDLGEEFSGRGHFPLAERANRGFGIVFSNGKRWKEIRRFSLMTLRNFGMGKRSIEDRVQEEARCLVEELRKTKASPCDPTFILGCAPCNVICSIIFQKRFDYKDQQFLNLMEKLNENIRIVSTPWIQICNNFPTIIDYFPGTHNKLLKNLAFMESDILEKVKEHQESMDINNPRDFIDCFLIKMEKEKQNQQSEFTIENLVITAADLLGAGTETTSTTLRYALLLLLKHPEVTAKVQEEIERVIGRNRSPCMQDRGHMPYTDAVVHEVQRYIDLIPTSLPHAVTCDVKFRNYLIPKGTTILTSLTSVLHDNKEFPNPEMFDPRHFLDEGGNFKKSNYFMPFSAGKRICVGEGLARMELFLFLTFILQNFNLKSLIDPKDLDTTPVVNGFASVPPFYQLCFIPV
modifications: microsomes
notes: CYP2C19 microsomes at 0.1 mg/ml, tested alone

Experiments:
CYP2D6 = CYP2D6 (Homo sapiens, UniProt P10635); test: CYP2D6-mediated metabolism: substrate disappearance in PM human liver microsome HHM-0116 supplemented with recombinant CYP2D6-expressing microsome; settings: microsomes, 1 μM substrate, 60 min incubation
Procedure: a) CYP2D6-mediated metabolism
The pH of the solution was 7.4. The incubation temperature was 37° C. At specific incubation times (0, 5, 10, 30, 60 minutes), an aliquot of 100 μl was withdrawn from the reaction mixture and mixed with 1 ml of ACN containing 5 ng/ml (2S, 3S)-3-(2-methoxybenzylamino)-2-diphenylmethyl-1-azabicyclo[2,2,2] octane as an internal standard. Protein was subsequently precipitated by centrifugation (1,800×g for 10 min). and the resulting supernatant was taken, evaporated and dissolved in 100 μl of 60% ACN. Concentrations of substrates and products in the sample solutions were analyzed with a Sciex API-III mass spectrometer linked with a Hewlett-Packard HP1090 HPLC system. A volume of 10 μl of the sample portion was injected to the HPLC system equipped with a Tosoh ODS-80Ts column manufactured by Tosoh (3.2×15 mm). Mobile phases comprised 80% acetonitrile(ACN) and 10 mM ammonium acetate and the elution was isocratic with a flow rate of 0.2 mlimin. The effluent from the HPLC column was introduced into the atmospheric pressure ionization source via an ion spray interface with splitting the effluent. The ion spray interface was operated at 5000 volt in a positive ion mode. Collision gas (argon) thickness (CGT), curtain gas (N2) and Neblizer gas (air) was 300×10^13 molecules/cm^2, 0.6 liter/minute and 40 PSI, respectively. The Q2 rod offset voltage (R2) was 0-6 V. The compounds were detected by multiple reacting monitoring (MRM) detection in the API-III mass spectrometer. The MS-MS were generally the combination of precursor and product. […] Concentrations of the remaining substrates in each sample solution (%-remaining) were plotted against the desired incubation times (FIG. 1(a), (c), (e), (g), (i), (k)).

CYP2C19 = CYP2C19 (Homo sapiens, UniProt P33261); test: S-mephenytoin hydroxylation activity; format: biochemical; settings: 100 μM S-(+)-Mephenytoin, pH 7.4, 37 °C
Procedure: As used herein, "S-mephenytoin hydroxylation activity" means the activity of 4'hydroxylation of S-mephenytoin as measured by HPLC-MS.
The reagent compositions of this invention, PM microsome (i.e., HHM0102), normal human liver microsomes mixture (i.e., HLM mix-A, and HLM mix-B, and (CYP2C19 0.1 mg/ml) were tested for hydroxymephenytoin generation activity which is a known property of microsome obtained from a normal metabolizer.
HHM-0102 microsomes (1.0 mg protein/ml) were mixed with a total of 0.3 mg protein/ml of CYP2C19 microsomes and the control microsomes with various ratios. […] Hydroxy mephenytoin which was generated in samples were analyzed by LC/MS/MS.

CYP2D6, sequence (P10635 whole entry): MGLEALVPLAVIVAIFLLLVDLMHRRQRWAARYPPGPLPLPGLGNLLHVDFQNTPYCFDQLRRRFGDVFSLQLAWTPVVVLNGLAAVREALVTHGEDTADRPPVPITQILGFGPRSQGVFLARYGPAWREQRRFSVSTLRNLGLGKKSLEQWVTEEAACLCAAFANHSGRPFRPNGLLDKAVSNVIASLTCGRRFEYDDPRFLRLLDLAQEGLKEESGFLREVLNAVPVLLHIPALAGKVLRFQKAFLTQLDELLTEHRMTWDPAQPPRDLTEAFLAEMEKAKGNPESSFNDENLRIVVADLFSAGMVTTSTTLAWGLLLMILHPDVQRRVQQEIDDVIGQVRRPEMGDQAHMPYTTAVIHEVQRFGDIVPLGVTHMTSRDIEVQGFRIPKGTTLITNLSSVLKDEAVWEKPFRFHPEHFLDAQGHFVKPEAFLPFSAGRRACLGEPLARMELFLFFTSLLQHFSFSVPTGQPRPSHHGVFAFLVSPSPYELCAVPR

| Molecule | half-life at 1 µM (CYP2D6; pH 7.4, T1/2, HHM0116 + 0 mg/ml 2D6 (control microsome)) | half-life at 1 µM (CYP2D6; pH 7.4, T1/2, HHM0116 + 0.1 mg/ml recombinant CYP2D6 microsome) | half-life at 1 µM (CYP2D6; pH 7.4, T1/2, HHM0116 + 0.5 mg/ml recombinant CYP2D6 microsome) | half-life at 1 µM (CYP2D6; pH 7.4, T1/2, HHM0116 + 1.0 mg/ml recombinant CYP2D6 microsome) | S-mephenytoin hydroxylation Activity (CYP2C19) |
| --- | --- | --- | --- | --- | --- |
| CC(C)NCC(O)COc1cccc2ccccc12 (centres unmarked) [Propranolol, propranolol] | 301 min | 70.2 min | 15 min | 5.4 min |  |
| B1 |  |  |  |  | 18.110 pmol/min/mg |
